pIC50: −log10 of the molar value.
Assays:
[1] = biological target: T1, BRM (Homo sapiens, UniProt P51531); assay: ATPase catalytic activity assay (ADP-Glo), BRM; type: biochemical; conditions: Table 10; for Ratio (BRG1 IC50 (μM) divided by BRM IC50 (μM)): ATPase assay, selectivity BRG1/BRM; for pIC50: ATPase catalytic activity assay (ADP-Glo)
T1 construct: made in house; host or cells: High Five insect cells
Method in brief: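 Reaction holds 30 nM BRM, 20 nM salmon sperm DNA and 400 μM ATP in 20 mM Tris pH 8, 20 mM MgCl2, 50 mM NaCl, 0.1% Tween-20, 1 mM DTT. Incubated 1 h at room temperature. ADP formed is detected by ADP-Glo luminescence.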

[2] = biological target: T2, BRG-1 (Homo sapiens, UniProt P51532); assay: ATPase catalytic activity assay (ADP-Glo), BRG-1; type: biochemical; conditions: Table 10, read-out: BRG1 IC50
T2 construct: made in house; host or cells: High Five insect cells
T2 sequence (P51532 whole entry): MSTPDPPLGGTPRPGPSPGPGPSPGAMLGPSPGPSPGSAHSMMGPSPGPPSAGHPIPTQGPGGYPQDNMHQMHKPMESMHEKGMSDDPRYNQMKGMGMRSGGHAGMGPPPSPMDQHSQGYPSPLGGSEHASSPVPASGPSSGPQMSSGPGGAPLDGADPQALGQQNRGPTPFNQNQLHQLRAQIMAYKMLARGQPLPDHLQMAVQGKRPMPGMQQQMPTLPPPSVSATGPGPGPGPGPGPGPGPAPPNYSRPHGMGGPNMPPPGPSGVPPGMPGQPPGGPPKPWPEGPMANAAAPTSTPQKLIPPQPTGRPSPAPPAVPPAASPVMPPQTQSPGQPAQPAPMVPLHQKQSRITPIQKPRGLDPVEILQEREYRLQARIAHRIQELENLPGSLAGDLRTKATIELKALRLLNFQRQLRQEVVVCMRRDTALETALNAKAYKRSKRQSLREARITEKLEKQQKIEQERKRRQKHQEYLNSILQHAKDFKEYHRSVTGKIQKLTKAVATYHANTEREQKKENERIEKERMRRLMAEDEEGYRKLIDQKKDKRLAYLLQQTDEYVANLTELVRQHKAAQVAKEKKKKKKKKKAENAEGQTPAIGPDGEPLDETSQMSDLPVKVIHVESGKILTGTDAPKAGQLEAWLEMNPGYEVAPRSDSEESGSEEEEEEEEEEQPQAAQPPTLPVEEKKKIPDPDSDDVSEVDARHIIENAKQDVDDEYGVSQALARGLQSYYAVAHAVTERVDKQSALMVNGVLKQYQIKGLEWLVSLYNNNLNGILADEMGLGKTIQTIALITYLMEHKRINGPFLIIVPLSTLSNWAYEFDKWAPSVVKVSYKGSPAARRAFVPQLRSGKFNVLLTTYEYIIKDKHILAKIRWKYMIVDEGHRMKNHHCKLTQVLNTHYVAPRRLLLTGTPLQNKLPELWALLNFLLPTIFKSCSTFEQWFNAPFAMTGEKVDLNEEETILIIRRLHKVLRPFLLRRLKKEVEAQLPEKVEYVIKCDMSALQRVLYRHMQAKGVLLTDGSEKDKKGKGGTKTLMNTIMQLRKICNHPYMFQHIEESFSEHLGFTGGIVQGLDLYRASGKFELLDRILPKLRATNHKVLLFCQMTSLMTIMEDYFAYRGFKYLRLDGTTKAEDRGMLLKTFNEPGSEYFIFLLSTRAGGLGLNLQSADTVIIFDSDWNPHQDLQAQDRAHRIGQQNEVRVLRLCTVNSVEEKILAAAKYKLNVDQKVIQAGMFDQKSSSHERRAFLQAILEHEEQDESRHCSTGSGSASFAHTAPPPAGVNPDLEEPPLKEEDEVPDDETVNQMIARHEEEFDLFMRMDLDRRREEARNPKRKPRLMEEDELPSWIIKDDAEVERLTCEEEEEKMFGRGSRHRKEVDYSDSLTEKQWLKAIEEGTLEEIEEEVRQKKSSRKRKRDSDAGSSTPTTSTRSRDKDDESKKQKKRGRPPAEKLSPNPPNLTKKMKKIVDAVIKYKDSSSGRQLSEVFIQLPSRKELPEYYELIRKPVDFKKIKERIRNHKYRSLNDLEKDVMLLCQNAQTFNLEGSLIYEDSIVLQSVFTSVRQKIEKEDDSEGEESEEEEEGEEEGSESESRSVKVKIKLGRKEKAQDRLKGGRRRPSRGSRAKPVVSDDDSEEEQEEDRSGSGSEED
Method in brief: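 Signal reflects ADP produced by the enzyme, quantified as luminescence after unused ATP is cleared and ADP is reconverted to ATP for the luciferase reaction; both steps run at room temperature, 40 and 60 min respectively.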

T1 sequence (P51531 whole entry): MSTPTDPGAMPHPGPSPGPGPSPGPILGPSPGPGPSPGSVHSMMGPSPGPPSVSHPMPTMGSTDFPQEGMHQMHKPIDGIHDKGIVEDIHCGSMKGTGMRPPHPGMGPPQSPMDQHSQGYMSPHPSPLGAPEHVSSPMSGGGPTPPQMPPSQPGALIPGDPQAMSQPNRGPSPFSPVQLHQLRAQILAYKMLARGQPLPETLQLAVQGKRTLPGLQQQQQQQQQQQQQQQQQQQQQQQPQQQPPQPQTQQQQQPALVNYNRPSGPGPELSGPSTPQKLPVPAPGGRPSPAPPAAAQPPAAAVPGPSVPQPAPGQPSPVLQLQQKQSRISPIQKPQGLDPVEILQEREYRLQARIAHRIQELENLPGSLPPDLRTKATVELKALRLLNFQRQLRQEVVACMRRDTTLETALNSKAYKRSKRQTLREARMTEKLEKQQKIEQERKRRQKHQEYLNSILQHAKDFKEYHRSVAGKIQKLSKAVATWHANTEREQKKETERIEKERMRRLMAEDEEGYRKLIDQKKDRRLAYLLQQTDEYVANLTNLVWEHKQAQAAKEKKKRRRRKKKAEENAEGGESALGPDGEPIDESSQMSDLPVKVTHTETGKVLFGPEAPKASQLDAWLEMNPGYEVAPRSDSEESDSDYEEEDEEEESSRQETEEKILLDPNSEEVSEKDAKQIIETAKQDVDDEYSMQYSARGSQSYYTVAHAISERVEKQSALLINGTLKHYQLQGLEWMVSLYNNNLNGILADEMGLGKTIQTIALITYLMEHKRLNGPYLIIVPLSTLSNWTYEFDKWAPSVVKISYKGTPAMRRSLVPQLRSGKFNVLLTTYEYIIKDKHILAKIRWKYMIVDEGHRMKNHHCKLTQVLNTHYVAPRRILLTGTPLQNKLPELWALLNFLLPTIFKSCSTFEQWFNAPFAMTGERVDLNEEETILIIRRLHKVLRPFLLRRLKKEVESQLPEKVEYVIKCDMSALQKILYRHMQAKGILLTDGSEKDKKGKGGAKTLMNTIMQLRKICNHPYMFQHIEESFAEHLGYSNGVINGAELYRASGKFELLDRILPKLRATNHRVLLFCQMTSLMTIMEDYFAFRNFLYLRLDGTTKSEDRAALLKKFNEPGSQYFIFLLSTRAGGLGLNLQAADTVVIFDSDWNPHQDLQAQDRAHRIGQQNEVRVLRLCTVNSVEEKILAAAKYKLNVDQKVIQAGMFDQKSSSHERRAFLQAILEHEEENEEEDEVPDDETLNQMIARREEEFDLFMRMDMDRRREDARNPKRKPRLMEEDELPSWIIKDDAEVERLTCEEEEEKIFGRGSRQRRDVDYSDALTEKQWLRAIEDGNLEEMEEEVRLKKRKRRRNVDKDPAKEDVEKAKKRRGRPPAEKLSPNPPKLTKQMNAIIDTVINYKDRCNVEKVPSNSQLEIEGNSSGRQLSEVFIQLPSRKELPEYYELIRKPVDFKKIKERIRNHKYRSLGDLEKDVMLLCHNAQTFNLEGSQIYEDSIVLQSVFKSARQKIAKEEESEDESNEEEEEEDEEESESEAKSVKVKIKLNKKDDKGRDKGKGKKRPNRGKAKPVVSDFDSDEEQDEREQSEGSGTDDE

Ratio (BRG1 IC50 (μM) divided by BRM IC50 (μM)) [1]	pIC50 [1]	pIC50 [2]	SMILES
23.74	8.11	6.66	O=C(NCc1cc2nc(N3CCOc4ccc(N5CC(F)C5)nc43)ccc2cn1)c1cc(F)c2c(c1)S(=O)(=O)[C@@H](F)CCO2 [Compound 246]
13.39	8.11	7.01	CCOc1cnc2c(c1)OCCN2c1ccc2cnc(CNC(=O)c3cc(F)c4c(c3)S(=O)(=O)[C@@H](F)CCO4)cc2n1 [Compound 247]
16.34	8.11	6.89	O=C(NCc1cc2nc(N3CCOc4cc(N5CC(CF)C5)cnc43)ccc2cn1)c1cc(F)c2c(c1)S(=O)(=O)[C@@H](F)CCO2 [Compound 248]
19.49	8.07	6.78	O=C(NCc1cc2nc(N3CCCc4c(OC5CC5)ncc(F)c43)ccc2cn1)c1cc(F)c2c(c1)S(=O)(=O)[C@@H](F)CCO2 [Compound 262]
10.51	8.07	7.05	CC1CN(c2ccnc3c2OCCN3c2ccc3cnc(CNC(=O)c4cc(F)c5c(c4)S(=O)(=O)[C@@H](F)CCO5)cc3n2)C1 [Compound 263]
11.56	8.06	7.00	O=C(NCc1cc2nc(N3CCOc4cc(C(F)(F)F)cnc43)ccc2cn1)c1cc(F)c2c(c1)S(=O)(=O)[C@@H](F)CCO2 [Compound 265]

The remaining lines, values behind:

SMILES	Ratio (BRG1 IC50 (μM) divided by BRM IC50 (μM)) [1]	pIC50 [1]	pIC50 [2]
O=C(NCc1cc2nc(-c3cccc([C@H]4CC4(F)F)n3)ccc2cn1)c1cc(F)c2c(c1)S(=O)(=O)[C@@H](F)CCO2 [Compound 250]	26.90	8.10	6.66
COc1nc([C@@](C)(F)C(F)F)ccc1-c1ccc2cnc(CNC(=O)c3cc(F)c4c(c3)S(=O)(=O)[C@@H](F)COC4)cc2n1 [Compound 251]	15.83	8.10	6.90
O=C(NCc1cc2nc(-c3cccc(C4CC4)n3)ccc2cn1)c1cc(F)c2c(c1)S(=O)(=O)[C@@H](F)CCO2 [Compound 252]	23.94	8.10	6.66
O=C(NCc1cc2nc(-c3cccc([C@@H]4CC4(F)F)n3)ccc2cn1)c1cc(F)c2c(c1)S(=O)(=O)[C@@H](F)COC2 [Compound 253]	22.99	8.10	6.77
O=C(NCc1cc2nc(N3CCOc4ccc(N5CC(F)(F)C5)nc43)ccc2cn1)c1cc(F)c2c(c1)S(=O)(=O)[C@@H](F)CCO2 [Compound 254]	21.58	8.10	6.72
C[C@@H]1CN(c2cccc(-c3ccc4cnc(CNC(=O)c5cc(Br)c6c(c5)S(=O)(=O)[C@@H](F)CCO6)cc4n3)n2)C[C@H](C)O1 [Compound 255]	23.96	8.09	6.69
CCn1ccc2c(-c3ccc4cnc(CNC(=O)c5cc(F)c6c(c5)S(=O)(=O)[C@@H](F)CCO6)cc4n3)ccnc21 [Compound 256]	13.83	8.09	6.95
COc1nc([C@@H](C)F)ccc1-c1ccc2cnc(CNC(=O)c3cc(F)c4c(c3)S(=O)(=O)[C@@H](F)CCO4)cc2n1 [Compound 259]	27.15	8.08	6.56
C[C@H](NC(=O)c1cc(F)c2c(c1)S(=O)(=O)[C@@H](F)COC2)c1cc2nc(N3CCOc4ccc(C(F)F)nc43)ccc2cn1 [Compound 260]	34.05	8.07	6.54
C[C@H](NC(=O)c1cc(F)c2c(c1)S(=O)(=O)[C@@H](F)CCO2)c1cc2nc(N3CCOc4cc(N5CCC5)cnc43)ccc2cn1 [Compound 261]	25.34	8.07	6.62

Reference: patent US12139487B2, “Compounds and uses thereof” (Foghorn Therapeutics Inc., priority 2022, dated 2024)
